Data: patent publication US8263562B2, “Peptides for preventing or treating liver damage” (priority 2006, dated 2012)
Like-named read-outs stand apart in the source and are kept apart here.

Columns and labels:
[1] = test system: BCG vaccine and lipopolysaccharide-induced immunological liver damage; assay type: in vivo, Wistar Rats; settings: for pathological condition of liver (score) versus model group: P<0.05
[2] = test system: D-aminogalactose-induced acute liver damage; experiment: D-aminogalactose-induced acute liver damage of rats; assay type: in vivo, Wistar Rats; settings: high, medium, low dosage (174, 87, 43.5 μg/kg) with adjuvant, four immunizations; 48 h after D-aminogalactose 600 mg/kg
Source text: Wistar Rats (body weight of each was 180 g˜220 g; half of them were male and the others were female; and they were purchased from Shanghai Slac Laboratory Animal, Inc.) were divided randomly into 6 groups as follows with 10 rats in each group: (1) the diammonium glycyrrhizinate injection group, injected with diammonium glycyrrhizinate; (2) the high dose group, immunized with Peptide A and adjuvant; (3) the medium dose group, immunized with Peptide A and adjuvant; (4) the low dose group, immunized with Peptide A and adjuvant; (5) the blank control group; and (6) the model group.
Rats in the high dose group, the medium dose group and the low dose group were immunized as follows: At Day 0, the first immunization was performed by the following process: 100 μl of Peptide A dissolved in physiological saline was mixed thoroughly with the equivalent volume of Freund's complete adjuvant, and then 0.2 ml of the resultant water-in-oil emulsion was administered via subcutaneous injection to each rat, wherein the dosage of Peptide A contained in the emulsion was 174 μg/kg rat body weight for the high dose group, 87 μg/kg rat body weight for the medium dose group, and 43.5 μg/kg rat body weight for the low dose group respectively. 14 days later, the second immunization was performed in the same dosage and manner as the first immunization except that, Freund's complete adjuvant was replaced by Freund's incomplete adjuvant. […]
At the 48th hour after intraperitoneally injecting D-aminogalactose, each rat was sacrificed by cervical dislocation, and blood was collected. After sera were isolated, according to the specification of the manufacturer, the activities of glutamic-pyruvic transaminase (SGPT) and glutamic-oxalacetic transaminase (SGOT) in sera were detected respectively by using Glutamic-pyruvic Transaminase Detection Kit (purchased from Nanjing Jiancheng Bioengineering Institute) and Glutamic-oxalacetic Transaminase Detection Kit (purchased from Nanjing Jiancheng Bioengineering Institute).

γ-IFN = experiment: Level of γ-IFN in sera of immunized mice by ELISA; assay type: in vivo, BALB/c Mice; settings: first day after the fourth immunization
Protocol: BALB/c Mice, all of which are male, 6 week old, and purchased from the Laboratory Animal Center of Academy Of Military Medical Sciences, Beijing, were divided into 4 groups as follows with 5 mice in each group: (1) the control group; (2) the Peptide A group, immunized with Peptide A; (3) the Peptide B group, immunized with Peptide B; and (4) the Peptide C group, immunized with Peptide C.
50 μl of the peptide (100 μg/μl) used in the corresponding group and 50 μl of Freund's complete adjuvant (GIBCOBRL Corp.) were mixed thoroughly with a microstirrer, and the mixture was injected into the claw pad of a mouse, thereby the first immunization was performed for each of the mice. 14 days later, booster immunization was performed in the same manner as the first immunization with 50 μl of the peptide (100 μg/μl) used in the corresponding group and 50 μl of Freund's complete adjuvant (GIBCOBRL Corp.). 14 days later, another booster immunization was performed in the same manner. 14 days later, boost immunization was performed by injecting 100 μg of the peptide dissolved in 200 μl PBS into the mouse intramuscularly. During the process of immunization, only the corresponding adjuvant and PBS were injected for the control group. At the first day after the fourth immunization, mice were sacrificed and sera were collected.
According to the specification of the manufacturer, the levels of cytokines (i.e., IL-4, IL-10, and γ-IFN) in sera of the above immunized mice were detected respectively by using IL-4 Quantikine ELASA Kit, IL-10 Quantikine ELASA Kit, and γ-IFN Quantikine ELASA Kit (all of which are purchased from R&D, Inc.).

[3] = high, medium, low dosage (174, 87, 43.5 μg/kg) without adjuvants, subcutaneous, four immunizations, 12 h after LPS

GQTYTSG [Peptide A]
pathological condition of liver (score) versus model group ([1]; high and medium dosage (174, 87 μg/kg) without any adjuvants): significant alleviation
level of glutamic-oxalacetic transaminase (SGOT) in sera versus model group [1, 3]: significant decrease
level of glutamic-pyruvic transaminase (SGPT) in sera versus model group [1, 3]: significant decrease
pathological condition of liver (score) versus model group ([1]; low dosage (43.5 μg/kg) with adjuvant): significant alleviation
protective effect on acute immunological liver damage (SGPT, SGOT) ([1]; low dose & adjuvant group, 43.5 μg/kg): protective effect
level of glutamic-oxalacetic transaminase (SGOT) in sera versus model group [2]: significant decrease
level of glutamic-pyruvic transaminase (SGPT) in sera versus model group [2]: significant decrease
γ-IFN(pg/ml serum) (γ-IFN): 23.46 ± 5.9 pg/ml serum
